Experimental findings from patent publication US6500842B1, “8-hydroxy-7-substituted quinolines as anti-viral agents” (Pharmacia & Upjohn Company, priority 1996, dated 2002) are described below.

Molecules are shown by their SMILES. “And” between values parts separate entries of the source, which are not always exact repeats. Equal values may be shown once. Read-outs that look alike come from different tables or passages of the source.

For orientation: melting point means the temperature, or range, at which the solid turns liquid. The inhibition is the drop in the measured response relative to a control, in per cent. For orientation: IC50 means the concentration that inhibits the measured activity by half. What is called % Inhibition is how much of the control response was suppressed. Lower therefore signals little suppression.

In one series the target is T1, CMV polymerase (Human cytomegalovirus, UniProt P08546).
T1 construct: made in house; host or cells: recombinant baculovirus-infected SF-9 cells
The experiment in a line: modified version of the HCMV polymerase assay (100% DMSO dilution, DTT, different enzyme lot). It counts as biochemical. As to conditions: for IC50: read-out: IC50. On the procedure: The HCMV polymerase assay is performed using a scintillation proximity assay (SPA) as described in several references, such as N. D. Cook, et al., Pharmaceutical Manufacturing International, pages 49-53 (1992); K. Takeuchi, Laboratory Practice, September issue (1992); U.S. Pat. No. 4,568,649 (1986); which are incorporated by reference herein. Reactions are performed in 96-well plates. The assay is conducted in 100 μl volume with 5.4 mM HEPES (pH 7.5), 11.7 mM KCl, 4.5 mM MgCl2, 0.36 mg/ml BSA, and 90 nM ^3H-dTTP. Assays are run with and without CHAPS, (3-[(3-Cholamidopropyl)-dimethylammonio]-1-propane-sulfonate) at a final concentration of 2 mM. HCMV is diluted in enzyme dilution buffer containing 50% glycerol, 250 mM NaCl, 10 mM HEPES (pH 7.5), 100 pg/ml BSA, and 0.01% sodium azide. The HCMV polymerase, which is expressed in recombinant baculovirus-infected SF-9 cells and purified according to literature procedures, is added at 10% (or 10 μl) of the final reaction volume, i.e., 100 μl. Compounds are diluted in 50% DMSO and 10 μl are added to each well. Control wells contain an equivalent concentration of DMSO. Unless noted otherwise, reactions are initiated via the addition of 6 nM biotinylated poly(dA)-oligo(dT) template/primer to reaction mixtures containing the enzyme, substrate, and compounds of interest. Plates are incubated in a 25° C. of 37° C. H2O bath and terminated via the addition of 40 μl/reaction of 0.5 M EDTA (pH 8) per well. Reactions are terminated within the time-frame during which substrate incorporation is linear and varied depending upon the enzyme and conditions used, i.e., 30 min. for HCMV polymerase. Ten μl of streptavidin-SPA beads (20 mg/ml in PBS/10% glycerol) are added following termination of the reaction. Plates are incubated 10 min. at 37° C., then equilibrated to room temperature, and counted on a Packard Topcount. Linear regressions are performed and IC50's are calculated using computer software. Results of the testing of compounds of the present invention in this assay are shown in Tables 1, 2, 5, 9, 10, 11, 13 (except for the last compound which was tested under modified conditions) and 14 below.
A modified version of the above HCMV polymerase assay is performed as described above, but with the following changes: Compounds are diluted in 100% DMSO until final dilution into assay buffer. In the previous assay, compounds are diluted in 50% DMSO. 4.5 mM dithiotherotol (DTT) is added to the polymerase buffer.

The target in the next series is T2, HCMV polymerase (Human cytomegalovirus, UniProt P08546).
T2 construct: made in house; host or cells: recombinant baculovirus-infected SF-9 cells
Kind of series: HCMV polymerase assay (scintillation proximity assay). It counts as biochemical. As to conditions: pol type CMV. The method, boiled down:
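Baculovirus/SF-9-expressed purified enzyme in HEPES pH 7.5, KCl, 4.5 mM MgCl2, BSA, with 90 nM ³H-dTTP, ± 2 mM CHAPS; started with 6 nM biotinylated poly(dA)-oligo(dT), 30 min, stopped with EDTA. Incorporation read by streptavidin SPA beads; IC50 by linear regression.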
(In general: Scintillation proximity formats need no separation of bound from free tracer.)

Setting [1] is: Table 1, read-out: CMV pol Assay IC50.

T2 sequence (P08546 whole entry): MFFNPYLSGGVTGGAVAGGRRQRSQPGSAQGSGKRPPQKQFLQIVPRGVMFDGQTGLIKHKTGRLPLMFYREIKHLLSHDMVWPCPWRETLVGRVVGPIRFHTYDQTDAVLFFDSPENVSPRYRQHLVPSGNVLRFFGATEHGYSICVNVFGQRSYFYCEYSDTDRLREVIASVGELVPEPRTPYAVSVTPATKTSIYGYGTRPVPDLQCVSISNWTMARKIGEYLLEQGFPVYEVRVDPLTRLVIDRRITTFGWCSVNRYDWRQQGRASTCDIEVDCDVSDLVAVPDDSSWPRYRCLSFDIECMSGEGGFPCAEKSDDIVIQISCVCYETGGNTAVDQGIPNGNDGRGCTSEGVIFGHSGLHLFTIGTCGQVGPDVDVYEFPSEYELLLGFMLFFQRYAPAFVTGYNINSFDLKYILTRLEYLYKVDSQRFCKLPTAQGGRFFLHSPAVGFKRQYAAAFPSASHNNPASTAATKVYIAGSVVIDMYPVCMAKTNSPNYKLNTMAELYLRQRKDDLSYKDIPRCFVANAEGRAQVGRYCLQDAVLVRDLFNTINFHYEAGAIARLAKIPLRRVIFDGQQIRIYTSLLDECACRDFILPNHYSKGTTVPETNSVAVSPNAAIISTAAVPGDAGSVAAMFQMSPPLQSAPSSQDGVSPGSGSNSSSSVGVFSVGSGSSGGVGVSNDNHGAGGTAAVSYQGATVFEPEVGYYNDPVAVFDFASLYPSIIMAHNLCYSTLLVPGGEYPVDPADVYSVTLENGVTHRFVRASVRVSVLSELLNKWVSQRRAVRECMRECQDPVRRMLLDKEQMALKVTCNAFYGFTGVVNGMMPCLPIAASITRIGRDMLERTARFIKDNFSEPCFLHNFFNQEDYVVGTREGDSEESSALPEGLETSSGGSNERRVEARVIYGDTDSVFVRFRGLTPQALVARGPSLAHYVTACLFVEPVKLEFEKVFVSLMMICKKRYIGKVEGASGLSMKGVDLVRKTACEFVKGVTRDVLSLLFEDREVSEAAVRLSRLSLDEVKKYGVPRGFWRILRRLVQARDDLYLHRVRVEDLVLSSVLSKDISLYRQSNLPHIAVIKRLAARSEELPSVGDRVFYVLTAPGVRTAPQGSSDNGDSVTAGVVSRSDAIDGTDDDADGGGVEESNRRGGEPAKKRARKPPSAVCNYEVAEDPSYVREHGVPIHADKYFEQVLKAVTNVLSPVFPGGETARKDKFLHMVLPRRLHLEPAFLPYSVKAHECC
T1 sequence (P08546 whole entry): as above

`Cc1ccc2c(Cl)cc(S(=O)(=O)NCCc3ccc(Cl)cc3)c(O)c2n1` [Example 60, 5-Chloro-N-[2-(4-chlorophenyl)ethyl]-8-hydroxy-2-methyl-7-quinolinesulfonamide] yielded a melting point of 131 to 133 °C. On CMV polymerase (Concentration 3.13 μM, Table 6), the inhibition at 3.13 µM was determined as 30%. In addition, at CMV polymerase (Concentration 6.25 μM, Table 6), the inhibition at 6.25 µM was found to be 19%. Also, on CMV polymerase (Concentration 12.5 μM, Table 6), the inhibition at 12.5 µM worked out at 31%. The inhibition at 25 µM against CMV polymerase (Concentration 25 μM, Table 6) came to 32%. Further, the inhibition at 50 µM on CMV polymerase (Concentration 50 μM, Table 6) is 51%. For the same compound, the inhibition at 100 µM on CMV polymerase (Concentration 100 μM, Table 6) was found to be 55%. Also, the inhibition at 200 µM against CMV polymerase (Concentration 200 μM, Table 6) was 70%. The half-maximal inhibitory concentration (IC50) at CMV polymerase (Table 6) was 57.4 µM.

Consider `Cc1ccc2c(Cl)cc(S(=O)(=O)N[C@@H](C)c3ccccc3)c(O)c2n1` [Example 40, (S)-5-Chloro-8-hydroxy-2-methyl-N-(1-phenylethyl)-7-quinolinesulfonamide], for which the melting point was in the range of 83 to 87 °C. Moreover, at CMV polymerase (Concentration 3.13 uM, Table 3), the inhibition at 3.13 µM is 22%. For the same compound, on CMV polymerase (Concentration 6.25 uM, Table 3), the inhibition at 6.25 µM was 36%. Besides, at CMV polymerase (Concentration 12.5 uM, Table 3), the inhibition at 12.5 µM stood at 47%. Also, the inhibition at 25 µM against CMV polymerase (Concentration 25 uM, Table 3) was 53%. At CMV polymerase (Concentration 50 uM, Table 3), the inhibition at 50 µM was 80%. The inhibition at 100 µM against CMV polymerase (Concentration 100 uM, Table 3) was 94%. For the same compound, on CMV polymerase (Table 3), the half-maximal inhibitory concentration (IC50) stood at 13.7 µM.

Regarding `Cc1ccc2c(Cl)cc(S(=O)(=O)NCCc3ccc(NS(=O)(=O)c4ccccc4)cc3)c(O)c2n1` [Example 66, 5-Chloro-8-hydroxy-2-methyl-N-[2-[4-[(phenylsulfonyl)-amino]phenyl]ethyl]-7-quinolinesulfonamide], the melting point is 269 to 272 °C. Also, the inhibition at 6.25 µM against CMV polymerase (Concentration 6.25 μM, Table 6) was 41%. In addition, the “% Inhibition” value on CMV polymerase (Concentration 6.25 μM, Table 6, 6.25 µM) is on record as 30%. For the same compound, on CMV polymerase (Concentration 25 μM, Table 6), the inhibition at 25 µM was 57%. Also, the “% Inhibition” value on CMV polymerase (Concentration 25 μM, Table 6, 25 µM) was 77%. Also, on CMV polymerase (Concentration 50 μM, Table 6), the inhibition at 50 µM worked out at 64%. For the same compound, the “% Inhibition” value on CMV polymerase (Concentration 50 μM, Table 6, 50 µM) is 71%. Moreover, the inhibition at 100 µM at CMV polymerase (Concentration 100 μM, Table 6) stood at 86%. In addition, the “% Inhibition” value at CMV polymerase (Concentration 100 μM, Table 6, 100 µM) is on record as 91%. The inhibition at 200 µM against CMV polymerase (Concentration 200 μM, Table 6) stood at 89%. In addition, the “% Inhibition” value at CMV polymerase (Concentration 200 μM, Table 6, 200 µM) was determined as 88%.

Compound `Cc1ccc2c(Cl)cc(S(=O)(=O)NCCCN3CCOCC3)c(O)c2n1` [Example 36, 5-Chloro-8-hydroxy-2-methyl-N-[3-(4-morpholinyl)propyl]-7-quinoline-sulfonamide] gave a melting point of 245 to 257 °C. In addition, at CMV polymerase (Concentration 3.13 uM, Table 3), the inhibition at 3.13 µM was -1%. For the same compound, the inhibition at 6.25 µM against CMV polymerase (Concentration 6.25 uM, Table 3) was -3%. Further, the inhibition at 12.5 µM against CMV polymerase (Concentration 12.5 uM, Table 3) amounted to 6%. Also, at CMV polymerase (Concentration 25 uM, Table 3), the inhibition at 25 µM was determined as 0%. For the same compound, the inhibition at 50 µM against CMV polymerase (Concentration 50 uM, Table 3) was determined as 15%. For the same compound, the inhibition at 100 µM at CMV polymerase (Concentration 100 uM, Table 3) came to 3%. The inhibition at 200 µM on CMV polymerase (Concentration 200 uM, Table 3) was 19%. For the same compound, the IC50 at CMV polymerase (Table 3) was more than 200 µM.

As for `Cc1ccc2c(Cl)cc(S(=O)(=O)NCc3ccc(Cl)cc3)c(O)c2n1` [Example 17, 5-Chloro-N-[(4-chlorophenyl)methyl]-8-hydroxy-2-methyl-7-quinolinesulfonamide], the melting point was 158 to 161 °C (dec.). Besides, the IC50 at HCMV polymerase (Table 2, read-out: IC50) amounted to 11.3 µM.

`O=C(Nc1ccc(Cl)cc1)c1cc(Cl)c2cccnc2c1O` [Example 15, 5-Chloro-N-(4-chlorophenyl)-8-hydroxy-7-quinolinecarboxamide] came in with a melting point of 214 to 216 °C. For the same compound, the IC50 on HCMV polymerase (setting [1]) was determined as 1.6 µM.

`O=C(NCc1ccc(Cl)cc1)c1ccc2ccc(/C=C/c3ccccc3)nc2c1O` [Example 51, N-[(4-Chlorophenyl)methyl]-8-hydroxy-2-(2-phenylethenyl)-7-quinolinecarboxamide]: the melting point fell in the range of 192 to 194 °C. Further, at HCMV polymerase (Table 5, read-out: IC50), the IC50 is < 3.1 µM and 0.17 µM.

Regarding `O=C(NCC(O)c1ccccc1)c1ccc2ccc(/C=C/c3ccccc3)nc2c1O` (centres unmarked) [Example 50, 8-Hydroxy-N-(2-hydroxy-2-phenylethyl)-2-(2-phenylethenyl)-7-quinolinecarboxamide], the melting point fell in the range of 83 to 86 °C. Moreover, on HCMV polymerase (Table 5, read-out: IC50), the IC50 was < 3.1 µM and 1.2 µM.

Take `O=C(Nc1ncc(-c2ccc(Br)s2)s1)c1ccc2cccnc2c1O` [Example 7, N-[5-(5-Bromo-2-thienyl)-2-thiazolyl]-8-hydroxy-7-quinolinecarboxamide]: the melting point is 279 to 281 °C (dec.). Also, at HCMV polymerase (setting [1]), the IC50 was found to be 6.9 µM.

With `O=C(Nc1ccc(Cl)cc1)c1ccc2cccnc2c1O` [Example 3, N-(4-Chlorophenyl)-8-hydroxy-7-quinolinecarboxamide], the melting point was in the range of 207 to 209 °C. The IC50 at HCMV polymerase (setting [1]) came to 7.1 µM.

Compound `O=C(NCc1ccc(Cl)cc1)c1ccc2ccc[n+]([O-])c2c1O` [Example 58, N-[(4-Chlorophenyl)methyl]-8-hydroxy-7-quinoline-N-oxide carboxamide] returned a melting point of 178 to 183 °C. For the same compound, the “% Inhib” value at HCMV polymerase (Table 5, Conc 1.00e-004 M) was determined as 65%. On HCMV polymerase (Table 5, Conc 1.30e-005 M), the “% Inhib” value was 27.9%. For the same compound, at HCMV polymerase (Table 5, Conc 2.50e-005 M), the “% Inhib” value stood at 40.2%. In addition, on HCMV polymerase (Table 5, Conc 3.13e-006 M), the “% Inhib” value is −2.9%. For the same compound, at HCMV polymerase (Table 5, Conc 5.00e-005 M), the “% Inhib” value came to 46.2%. For the same compound, on HCMV polymerase (Table 5, Conc 6.25e-006 M), the “% Inhib” value is on record as 2.4%. On HCMV polymerase (Table 5, read-out: IC50), the IC50 worked out at 49.7 µM.

`COc1ccc(/C=C/c2ccc3ccc(C(=O)NCCSc4ccccc4)c(O)c3n2)cc1` [Example 54, 8-Hydroxy-2-[2-(4-methoxyphenyl)ethenyl]-N-[2-(phenylthio)-ethyl]-7-quinolinecarboxamide]: the melting point was in the range of 163 to 165 °C. Besides, the 50% inhibitory concentration (IC50) on HCMV polymerase (Table 5, read-out: IC50) was < 3.1 µM and 0.3 µM.

`Cc1ccc2c(Cl)cc(S(=O)(=O)NCc3cccc(Cl)c3)c(O)c2n1` [Example 33, 5-Chloro-N-[(3-chlorophenyl)methyl]-8-hydroxy-2-methyl-7-quinolinesulfonamide] showed a melting point of 52 to 54 °C. On HCMV polymerase (Table 2, read-out: IC50), the half-maximal inhibitory concentration (IC50) was 12.8 µM.

In turn, `O=C(NCc1ccc(Cl)cc1)c1cc(Cl)c2cccnc2c1O` [Example 11, 5-Chloro-N-[(4-chlorophenyl)methyl]-8-hydroxy-7-quinolinecarboxamide] yielded a melting point of 163 to 166 °C. Moreover, the 50% inhibitory concentration (IC50) at HCMV polymerase (setting [1]) is 1.3 µM.

`CCCCCCCNC(=O)c1ccc2ccc(/C=C/c3ccc(OC)cc3)nc2c1O` [Example 48, N-Heptyl-8-hydroxy-2-[2-(4-methoxyphenyl)ethenyl]-7-quinolinecarboxamide]: the melting point was in the range of 115 to 116 °C. Also, the half-inhibitory concentration (IC50) on HCMV polymerase (Table 5, read-out: IC50) is 0.5 µM and < 3.1 µM.

Compound `Cc1ccc2c(Cl)cc(S(=O)(=O)NCc3ccccc3)c(O)c2n1` [Example 27, 5-Chloro-8-hydroxy-2-methyl-N-(phenylmethyl)-7-quinoline-sulfonamide] returned a melting point of 113 to 114 °C. In addition, the IC50 at HCMV polymerase (Table 2, read-out: IC50) stood at 14.8 µM.

As for `Br.O=S(=O)(NCCCc1ccccc1)c1cc(Cl)c2cccnc2c1O` [Example 21, 5-Chloro-8-hydroxy-N-(3-phenylpropyl)-7-quinolinesulfonamide monohydrobromide], the melting point was 210 to 212 °C (dec.). The IC50 at HCMV polymerase (Table 2, read-out: IC50) is 7.5 µM and 12.6 µM.

The compound `Cc1ccc2ccc(C(=O)NCc3ccc(Cl)cc3)c(O)c2n1` [Example 10, N-[(4-Chlorophenyl)methyl]-8-hydroxy-2-methyl-7-quinolinecarboxamide] showed a melting point of 95 to 98 °C. At HCMV polymerase (setting [1]), the concentration for half-maximal inhibition (IC50) came out at 19 µM.
